The source of these data is US20250277066A1, “Substituted Pyridine-2,6-Bis(Phenylenephenolate) Complexes with Enhanced Solubility that are Useful as Catalyst Components for Olefin Polymerization” (ExxonMobil Chemical Patents Inc., priority 2022, published 2025).

Where “and” joins values, the source holds several entries; their conditions need not be identical. Identical values can stand only once. Some results are limits rather than exact numbers.

Data set [1] can be described thus: DSC melting point of polymers (TA-Q100). Format: physicochemical. The protocol: Differential Scanning Calorimetry (DSC) measurements were performed on a TA-Q100 instrument to determine the melting point of the polymers. Samples were pre-annealed at 220° C. for 15 minutes and then allowed to cool to room temperature overnight. The samples were then heated to 220° C. at a rate of 100° C./minute and then cooled at a rate of 50° C./minute. Melting points were collected during the heating period. The results are reported in the Table 2 under the heading, Tm (° C.).

The nature of data set [2]: Propylene polymerization (PP) in small-scale autoclave reactors: yield, quench time, catalyst activity. The settings on record: activator A. From the text: Solutions of the pre-catalysts were made using toluene (ExxonMobil Chemical—anhydrous, stored under N2) (98%) or isohexane (ExxonMobil Chemical—polymerization grade, and purified as described below). Pre-catalyst solutions were typically 0.25 mmol/L.
Solvents, polymerization grade toluene and/or isohexanes were supplied by ExxonMobil Chemical Co. and are purified by passing through a series of columns: two 500 cc Oxyclear cylinders in series from Labclear (Oakland, Calif), followed by two 500 cc columns in series packed with dried […] (8-12 mesh; Aldrich Chemical Company), and two 500 cc columns in series packed with dried 5 Å mole sieves (8-12 mesh; Aldrich Chemical Company).
Polymerization grade propylene (C3) was used and further purified by passing it through a series of columns: 2250 cc Oxiclear cylinder from Labclear followed by a 2250 cc column packed with 3 Å mole sieves (8-12 mesh; Aldrich Chemical Company), then two 500 cc columns in series packed with 5 Å mole sieves (8-12 mesh; Aldrich Chemical Company), then a 500 cc column packed with Selexsorb CD (BASF), and finally a 500 cc column packed with Selexsorb COS (BASF).
Activation of the pre-catalysts was either by dimethylanilinium tetrakisperfluorophenylborate (Boulder Scientific or Albemarle Corp; Act ID=A) or is (hydrogenated tallow alkyl)methylammonium tetrakis(pentafluorophenyl)borate supplied as a 10 wt % solution in methylcyclohexane (Boulder Scientific; Act ID=B). Activators were typically used as a 0.25 mmol/L solution in toluene or isohexane.
Tri-n-octylaluminum (TnOAl or TNOA, Neat, AkzoNobel) was also used as a scavenger prior to introduction of the activator and pre-catalyst into the reactor. TNOA was typically used as a 5 mmol/L solution in toluene or isohexane.
Polymerizations were conducted in an inert atmosphere (N2) drybox using autoclaves equipped with an external heater for temperature control, glass inserts (internal volume of reactor=23.5 mL for C2 and C2/C8; 22.5 mL for C3 runs), septum inlets, regulated supply of nitrogen, ethylene and propylene, and equipped with disposable PEEK mechanical stirrers (800 RPM). The autoclaves were prepared by purging with dry nitrogen at 110° C. or 115° C. for 5 hours and then at 25° C. for 5 hours.
The reactor was prepared as described above, then heated to 40° C., and then purged with propylene gas at atmospheric pressure. Toluene or isohexanes, liquid propylene (1.0 mL) and scavenger (TNOA, 0.5 μmol) were added via syringe. The reactor was then brought to process temperature (70° C. or 100° C.) while stirring at 800 RPM. The activator solution, followed by the pre-catalyst solution, were injected via syringe to the reactor at process conditions. Reactor temperature was monitored and typically maintained within +/−1° C. Polymerizations were halted by addition of approximately 50 psi compressed dry air gas mixture to the autoclaves for approximately 30 seconds. The polymerizations were quenched based on a predetermined pressure loss (maximum quench value) or for a maximum of 30 minutes. The reactors were cooled and vented. The polymers were isolated after the solvent was removed in-vacuo. The actual quench time (s) is reported as quench time (s). Yields reported include total weight of polymer and residual catalyst. Catalyst activity is reported as grams of polymer per mmol transition metal compound per hour of reaction time (g/mmol·hr).
Polymerization results are collected in Tables 2 below. “Ex #” stands for example number. Example numbers starting with a “C” are comparative examples. “Cat ID” identifies the pre-catalyst used in the experiment. Corresponding numbers identifying the pre-catalyst (also referred to as pre-catalyst, catalyst, complex or compound) are located in the synthetic experimental section. T(° C.) is the polymerization temperature which was typically maintained within +/−1° C. “Yield” is polymer yield, and is not corrected for catalyst residue. […]

The nature of data set [3]: Rapid GPC of polymers (Mn, Mw, Mz, PDI). Format: physicochemical. On the set-up: Mn / Mw / Mz: unit not given here. The protocol: For analytical testing, polymer sample solutions were prepared by dissolving polymer in 1,2,4-trichlorobenzene (TCB, 99+% purity from Sigma-Aldrich) containing 2,6-di-tert-butyl-4-methylphenol (BHT, 99% from Aldrich) at 165° C. in a shaker oven for approximately 3 hours. The typical concentration of polymer in solution was between 0.1 to 0.9 mg/mL with a BHT concentration of 1.25 mg BHT/mL of TCB. Samples were cooled to 135° C. for testing.
High temperature size exclusion chromatography was performed using an automated “Rapid GPC” system as described in U.S. Pat. Nos. 6,491,816; 6,491,823; 6,475,391; 6,461,515; 6,436,292; 6,406,632; 6,175,409; 6,454,947; 6,260,407; and 6,294,388; each of which is incorporated herein by reference. Molecular weights (weight average molecular weight (Mw), number average molecular weight (Mn) and z average molecular weight (Mz)) and molecular weight distribution (MWD=Mw/Mn), which is also sometimes referred to as the polydispersity (PDI) of the polymer, were measured by Gel Permeation Chromatography using a Symyx Technology GPC equipped with evaporative light scattering detector (ELSD) and calibrated using polystyrene standards (Polymer Laboratories: Polystyrene Calibration Kit S-M-10: Mp (peak Mw) between 5,000 and 3,390,000). Alternatively, samples were measured by Gel Permeation Chromatography using a Symyx Technology GPC equipped with dual wavelength infrared detector and calibrated using polystyrene standards (Polymer Laboratories: Polystyrene Calibration Kit S-M-10: Mp (peak Mw) between 580 and 3,039,000). […] No column spreading corrections were employed. Numerical analyses were performed using Epoch® software available from Symyx Technologies or Automation Studio software available from Freeslate. The molecular weights obtained are relative to linear polystyrene standards. Molecular weight data is reported in Table 2 under the headings Mn, Mw, Mz and PDI as defined above.

Data set [4] can be described thus: Solubility of complexes in isohexane (Method 1 or Method 2). The data set is classed as physicochemical. The settings on record: ambient temperature (20° C.-25° C.), mass includes residual solvent. The protocol: Solubility studies for all other complexes were performed using material as synthesized. […] Solvents used were sparged with nitrogen (30-60 minutes) and dried over 3 Å mole sieves. Unless stated otherwise all measurements were performed at ambient temperature (20° C.-25° C.).
General procedure: Solubility was determined using the following Method 1 or Method 2. For calculations, a value of 0.672 g/mL was used for the density of isohexane.
Method 1: A tared vial was loaded with a small amount of the complex (actual mass recorded, including any residual solvent as noted above, typically 5-30 mg). Then a small stir bar (8 mm) was added. Solvent was then added and the mixture was stirred rapidly (1000 rpm). […] This process was repeated until either a clear solution was obtained (no visible solids or murkiness) or the vial was full. As the mixture approached homogeneity (i.e., few remaining solids observed) the volume of the solvent additions was kept small (<1 mL) to minimize excess beyond the solvent required to achieve homogeneity. The stir bar was then removed and the mass of the mixture was measured. If a clear solution had formed then the solubility of the complex was calculated as a single value, based on the mass of complex and the amount of solvent added to achieve a homogeneous solution. If the mixture remained heterogeneous (visible solids or murky), then the value reported is given as being “less than” the calculated value.
Method 2: A measured amount of complex (actual mass recorded, including any residual solvent as noted above) was added to a tared vial, followed by a stir bar. Dry isohexanes were added in small portions and the resulting mixture was stirred after each portion of isohexanes. If a clear solution had formed then the solubility was reported as a range, the lower bound of solubility calculated using the total solvent added to achieve a homogenous solution and the upper bound of solubility calculated using the total solvent measured prior to achieving a homogenous solution. If the mixture remained heterogeneous (visible solids or murky), the upper bound of solubility was calculated using the total solvent added. Formula used to calculate solubility are listed below. Solvent present in the complex is included in the mass and formula weight of the complexes.

Where [5] appears, read: polymer made with activator A, T 70 ° C.
[6] abbreviates: polypropylene made with activator A at 70° C.
The mark [7] stands for this setting: polypropylene made with activator A at 100° C.
Where [8] appears, read: polypropylene made with activator A at 70° C., Mw/Mn.
Where [9] appears, read: polypropylene made with activator A at 100° C., Mw/Mn.

With `Cc1cc2[n+]3c(c1)-c1ccccc1-c1cc(C(C)(C)C)cc(C45CC6CC(CC(C6)C4)C5)c1[O][Zr-]3([CH3])([CH3])[O]c1c(cc(C(C)(C)C)cc1C13CC4CC(CC(C4)C1)C3)-c1ccccc1-2` [compound 3], the Tm in data set [1] (setting [5]) was 150.7 °C. Besides, the Activity in data set [2] (T 70° C.) is 1,251,771 g P/mmol cat • hr. For the same compound, in data set [3] (setting [5]), the Mn is 206,080, the Mw is given as 676,784, the Mz is given as 2,471,266 and the PDI is on record as 3.28.

In the case of `Cc1cc2c(c(C34CC5CC(C)(CC(C)(C5)C3)C4)c1)[O][Hf-]1([CH3])([CH3])[O]c3c(cc(C)cc3C34CC5CC(C)(CC(C)(C5)C3)C4)-c3ccccc3-c3cc(N4CCCC4)cc([n+]31)-c1ccccc1-2` [Complex 30], the Tm was 163.3 °C and 163.5 °C and 164.8 °C in data set [1] (setting [6]); 158.0 °C and 158.7 °C and 159.0 °C in data set [1] (setting [7]). The Activity in data set [2] (T 70° C.) was 7,103 g P/mmol cat • hr and 6,836 g P/mmol cat • hr and 8,533 g P/mmol cat • hr; in data set [2] (T 100° C.) it was 4,453 g P/mmol cat • hr and 6,707 g P/mmol cat • hr and 8,689 g P/mmol cat • hr. The Mn in data set [3] (setting [6]) is 186,851 and 187,906 and 245,411; in data set [3] (setting [7]), 86,554 and 106,308 and 121,006. The Mw was 346,587 and 346,773 and 427,041 in data set [3] (setting [6]); 147,732 and 177,827 and 199,815 in data set [3] (setting [7]). Moreover, the Mz was 762,107 and 711,356 and 871,754 in data set [3] (setting [6]); 301,600 and 354,753 and 438,188 in data set [3] (setting [7]). Further, the PDI in data set [3] (setting [8]) was 1.85 and 1.74; in data set [3] (setting [9]) it was 1.71 and 1.67 and 1.65.

Consider `Cc1cc2c(c(C34CC5CC(CC(C5)C3)C4)c1)[O][Zr-]1([CH3])([CH3])[O]c3c(cc(C)cc3C34CC5CC(CC(C5)C3)C4)-c3ccccc3-c3cccc([n+]31)-c1ccccc1-2` [Complex 1], for which, in data set [4], the “Solubility (s) in Isohexane” value is under 600 µM. Besides, the “Solubility (s) in Isohexane (wt %)” value in data set [4] is recorded as under 0.08 wt %. For the same compound, the Tm in data set [1] (setting [6]) is 147.5 °C and 147.3 °C and 148.1 °C; in data set [1] (setting [7]) it was 145.8 °C and 147.0 °C. The Activity in data set [2] (T 70° C.) was 5,668,800 g P/mmol cat • hr and 7,619,077 g P/mmol cat • hr and 6,920,571 g P/mmol cat • hr; in data set [2] (T 100° C.), 3,931,500 g P/mmol cat • hr and 4,448,471 g P/mmol cat • hr and 2,644,800 g P/mmol cat • hr. Besides, the Mn in data set [3] (setting [6]) was 57,753 and 64,376 and 67,290; in data set [3] (setting [7]), 28,762 and 34,553 and 48,560. Besides, the Mw in data set [3] (setting [6]) is 372,797 and 502,821 and 428,075; in data set [3] (setting [7]), 152,087 and 155,815 and 169,007. The Mz in data set [3] (setting [6]) was 1,464,190 and 2,141,863 and 1,753,319; in data set [3] (setting [7]), 646,646 and 665,846 and 624,200. Moreover, the PDI in data set [3] (setting [8]) was 6.46 and 7.81 and 6.36; in data set [3] (setting [9]), 5.29 and 4.51 and 3.48.
